Earlier results, collected in PubChem BioAssay AID1259410 (Chemical Carcinogenesis Research Information System (CCRIS), 2018).

Test system: rodent tumor promotion studies, tumor incidence
Experiment: CCRIS tumor promotion studies
[1] = Carcinogen: 7,12-DIMETHYLBENZ(A)ANTHRACENE, Doses [Carcinogen]: TOP, Route [Carcinogen]: DERMAL, Route [Promoter]: DERMAL, Species: MOUSE, Strain/Sex: MALE

## C[C@]12CC[C@H](O)CC1=CC[C@@H]1[C@@H]2CC[C@]2(C)C(=O)CC[C@@H]12
Carcinogen: N-METHYL-N'-NITRO-N-NITROSOGUANIDINE, 70-25-7, Doses [Carcinogen]: 35 PPM IN WATER FOR 30 MIN ONCE, Doses [Promoter]: 0, 111, 222, 444, 888 PPM IN DIET FOR 6 MO BEGINNING 3 MO POST CARCINOGEN TREATMENT (STUDY DURATION: 9 MO), Doses [Promoter]: 0, 111, 222, 444, 888 PPM IN DIET FOR 6 MO BEGINNING 3 MO POST CARCINOGEN TREATMENT (STUDY DURATION: 9 MO), Route [Carcinogen]: IMMERSION, Route [Promoter]: ORAL, Species: FISH, Strain/Sex: RAINBOW TROUT/MALE,FEMALE
  outcome: liver: tumor
Carcinogen: N-METHYL-N'-NITRO-N-NITROSOGUANIDINE, 70-25-7, Doses [Carcinogen]: 35 PPM IN WATER FOR 30 MIN ONCE, Doses [Promoter]: 0, 111, 888 PPM IN DIET FOR 6 MO BEGINNING 3 MO POST CARCINOGEN TREATMENT (STUDY DURATION: 9 MO), Doses [Promoter]: 0, 111, 888 PPM IN DIET FOR 6 MO BEGINNING 3 MO POST CARCINOGEN TREATMENT (STUDY DURATION: 9 MO), Route [Carcinogen]: IMMERSION, Route [Promoter]: ORAL, Species: FISH, Strain/Sex: RAINBOW TROUT/MALE,FEMALE
  outcome: kidney: tumor
Carcinogen: N-NITROSOMORPHOLINE, 59-89-2, Doses [Carcinogen]: 120 MG/L IN DRINKING WATER FOR 7 WK, Doses [Promoter]: 0, 0.6% IN THE DIET FOR DURATION OF STUDY BEGINNING 1 WK POST CARCINOGEN TREATMENT (STUDY DURATION: 84 WK), Route [Carcinogen]: ORAL, Route [Promoter]: ORAL, Species: RAT, Strain/Sex: SPRAGUE-DAWLEY/FEMALE
  outcome: liver: hepatocellular carcinoma
Carcinogen: N-NITROSOMORPHOLINE, 59-89-2, Doses [Carcinogen]: 120 MG/L IN DRINKING WATER FOR 7 WK, Doses [Promoter]: 0, 0.6% IN THE DIET FOR DURATION OF STUDY BEGINNING 1 WK POST CARCINOGEN TREATMENT (STUDY DURATION: 84 WK), Route [Carcinogen]: ORAL, Route [Promoter]: ORAL, Species: RAT, Strain/Sex: SPRAGUE-DAWLEY/MALE
  outcome: liver: hepatocellular adenoma
Doses [Carcinogen]: 10 PPB IN WATER FOR 30 MIN, Doses [Promoter]: 0, 444 PPM IN DIET FOR 6 MO BEGINNING 3 MO POST CARCINOGEN TREATMENT (STUDY DURATION: 9 MO), Route [Carcinogen]: IMMERSION, Route [Promoter]: ORAL, Species: FISH, Strain/Sex: RAINBOW TROUT/MALE, FEMALE
  outcome: liver: tumor
Doses [Carcinogen]: 10 PPB IN WATER, Doses [Promoter]: 0, 222, 444, 888 PPM IN DIET 1/D 5 D/WK FOR 30 WK BEGINNING 16 WK POST CARCINOGEN TREATMENT (STUDY DURATION: 46 WK), Doses [Promoter]: 0, 222, 444, 888 PPM IN DIET 1/D 5 D/WK FOR 30 WK BEGINNING 16 WK POST CARCINOGEN TREATMENT (STUDY DURATION: 46 WK), Route [Carcinogen]: IMMERSION, Route [Promoter]: ORAL, Species: FISH, Strain/Sex: RAINBOW TROUT/MALE, FEMALE
  outcome: liver: tumor

## CCCCCC1(CCCCCC(=O)OC2C(C)C3(O)C(C=C(CO)CC4(O)C(=O)C(C)=CC43)C3C(C)(C)C23OC(C)=O)OCC(C)(C)N1[O] (stereo not drawn)
Carcinogen: 7,12-DIMETHYLBENZ[A]ANTHRACENE, 57-97-6, Doses [Carcinogen]: 100 NMOL ONCE, Doses [Promoter]: 0, 20 NMOL 2/WK FOR 24 WK BEGINNING 1 WK POST CARCINOGEN DOSE (STUDY DURATION: 25 WK), Route [Carcinogen]: DERMAL, Route [Promoter]: DERMAL, Species: MOUSE, Strain/Sex: NMRI/FEMALE
  outcome: skin: tumor

## CNC[C@H](O)c1cccc(O)c1
Carcinogen: N-METHYL-N'-NITRO-N-NITROSOGUANIDINE, 70-25-7, Doses [Carcinogen]: 25 UG/ML IN DRINKING WATER FOR 20 WK, Doses [Promoter]: 0, 6 MG/KG BW IN OLIVE OIL 1/2 D BEGINNING POST CARCINOGEN TREATMENT (STUDY DURATION: 52 WK), Route [Carcinogen]: ORAL, Route [Promoter]: SUBCUTANEOUS, Species: RAT, Strain/Sex: WISTAR/MALE
  outcome: stomach: adenocarcinoma
Carcinogen: N-METHYL-N'-NITRO-N-NITROSOGUANIDINE, 70-25-7, Doses [Carcinogen]: 25 UG/ML IN DRINKING WATER FOR 25 WK, Doses [Promoter]: 0, 6 MG/KG BW 1/2 D FOR 27 WK BEGINNING POST CARCINOGEN TREATMENT (STUDY DURATION: 52 WK), Route [Carcinogen]: ORAL, Route [Promoter]: SUBCUTANEOUS, Species: RAT, Strain/Sex: WISTAR/MALE
  outcome: glandular stomach: adenocarcinoma

## Cc1ccc(O)c(O)c1
Carcinogen: N-METHYL-N'-NITRO-N-NITROSOGUANIDINE, 70-25-7, Doses [Carcinogen]: 150 MG/KG IN DMSO ONCE, Doses [Promoter]: 0, 1.5% IN DIET FOR 51 WK BEGINNING 1 WK AFTER CARCINOGEN DOSE (STUDY DURATION: 52 WK), Route [Carcinogen]: GAVAGE, Route [Promoter]: ORAL, Species: RAT, Strain/Sex: F344/MALE
  outcome: forestomach: squamous cell carcinoma; glandular stomach: adenocarcinoma

## CCCCCCCCCCCC(=O)OCCOC[C@@H](OCCO)[C@H]1OC[C@@H](OCCO)[C@H]1OCCO
[1]
  outcome: integumentary system (skin)

## CC[C@H](C)[C@H](NC(=O)[C@H](Cc1cnc[nH]1)NC(=O)[C@H](CCSC)NC(=O)[C@H](CS)NC(=O)[C@@H](NC(=O)CNC(=O)CNC(=O)[C@H](CC(N)=O)NC(=O)[C@H](CC(C)C)NC(=O)[C@H](CS)NC(=O)[C@H](Cc1ccc(O)cc1)NC(=O)CNC(=O)[C@H](CC(=O)O)NC(=O)[C@H](Cc1ccc(O)cc1)NC(=O)[C@H](CO)NC(=O)[C@H](CO)NC(=O)[C@@H]1CCCN1C(=O)[C@H](CS)NC(=O)CNC(=O)[C@@H]1CCCN1C(=O)[C@H](Cc1ccc(O)cc1)NC(=O)[C@H](CO)NC(=O)[C@@H](N)CC(N)=O)C(C)C)C(=O)N[C@@H](CCC(=O)O)C(=O)N[C@@H](CO)C(=O)N[C@@H](CC(C)C)C(=O)N[C@@H](CC(=O)O)C(=O)N[C@@H](CO)C(=O)N[C@@H](Cc1ccc(O)cc1)C(=O)N[C@H](C(=O)N[C@@H](CS)C(=O)N[C@@H](CC(N)=O)C(=O)N[C@@H](CS)C(=O)N[C@H](C(=O)N[C@H](C(=O)NCC(=O)N[C@@H](Cc1ccc(O)cc1)C(=O)N[C@@H](CO)C(=O)NCC(=O)N[C@@H](CC(=O)O)C(=O)N[C@@H](CCCNC(=N)N)C(=O)N[C@@H](CS)C(=O)N[C@@H](CCC(N)=O)C(=O)N[C@H](C(=O)N[C@@H](CCCNC(=N)N)C(=O)N[C@@H](CC(=O)O)C(=O)N[C@@H](CC(C)C)C(=O)N[C@@H](CCCNC(=N)N)C(=O)N[C@@H](Cc1c[nH]c2ccccc12)C(=O)N[C@@H](Cc1c[nH]c2ccccc12)C(=O)N[C@@H](CCC(=O)O)C(=O)N[C@@H](CC(C)C)C(=O)N[C@@H](CCCNC(=N)N)C(=O)O)[C@@H](C)O)[C@@H](C)CC)C(C)C)[C@@H](C)O
Carcinogen: 7,12-DIMETHYLBENZ[A]ANTHRACENE, 57-97-6, Doses [Carcinogen]: 0.5% IN ACETONE/HEAVY MINERAL OIL APPLIED TO BOTH CHEEK POUCHES 3/WK FOR 6 WK, Doses [Promoter]: 0, 10 UG/KG BW 3/WK FOR 6 WK BEGINNING 1 WK POST A SIALOADENECTOMY OR SHAM OPERATION AND 2 WK POST CARCINOGEN TREATMENT, Route [Carcinogen]: MUCOUS MEMBRANE, Route [Promoter]: MUCOUS MEMBRANE, Species: HAMSTER, Strain/Sex: SYRIAN/MALE
  outcome: cheek pouch: tumor; forestomach: tumor

## O=P(O)(O)OC1C(OP(=O)(O)O)C(OP(=O)(O)O)C(OP(=O)(O)O)C(OP(=O)(O)O)C1OP(=O)(O)O (stereo not drawn)
Carcinogen: N-BUTYL-N-(4-HYDROXYBUTYL)NITROSAMINE, 3817-11-6, Doses [Carcinogen]: 0.05% IN DRINKING WATER FOR 4 WK, Doses [Promoter]: 0, 2% IN DIET BEGINNING POST CARCINOGEN TREATMENT AND CONTINUING FOR 32 WK (STUDY DURATION: 36 WK), Route [Carcinogen]: ORAL, Route [Promoter]: ORAL, Species: RAT, Strain/Sex: F344/MALE
  outcome: urinary bladder: papilloma, carcinoma

## CCCCCCCCCCCC(=O)O
Carcinogen: 7,12-DIMETHYLBENZ(A)ANTHRACENE, Doses [Carcinogen]: TOP, Route [Carcinogen]: DERMAL, Route [Promoter]: DERMAL, Species: MOUSE, Strain/Sex: MALE,FEMALE
  outcome: integumentary system (skin)

## CCCCCCCCCCCC(=O)OC[C@@H](O)[C@H]1OC[C@H](O)[C@H]1O
[1]
  outcome: integumentary system (skin)

## C[C@]12CC[C@@H]3c4ccc(O)cc4CC[C@H]3[C@@H]1CC[C@@H]2OC(=O)CCc1ccccc1 (tested in a mixture with another compound)
Carcinogen: N-NITROSOMORPHOLINE, Doses [Carcinogen]: IG, Route [Carcinogen]: GAVAGE, Route [Promoter]: INTRAMUSCULAR, Species: RAT, Strain/Sex: FEMALE
  outcome: liver

## CN(CCCC(=O)O)N=O
Carcinogen: 1-NITROSO-1,3-DIMETHYLUREA, 13256-32-1, Doses [Carcinogen]: 10 MG/ML IN ETHYL ACETATE/CORN OIL (1:1) 1/WK FOR 2 WK, Doses [Promoter]: 0, 100 MG/L IN DRINKING WATER 5 D/WK FOR 40 WK BEGINNING 1/WK POST CARCINOGEN TREATMENT (STUDY DURATION: 43 WK), Route [Carcinogen]: GAVAGE, Route [Promoter]: ORAL, Species: RAT, Strain/Sex: F344/MALE
  outcome: urinary bladder: transitional cell carcinoma
Carcinogen: NITROSOBIS(2-OXOPROPYL)AMINE, 60599-38-4, Doses [Carcinogen]: 12 MG/ML IN ETHYLACETATE/CORN OIL (1:1) 2/WK FOR 2 WK, Doses [Promoter]: 0, 100 MG/L IN DRINKING WATER 5 D/WK FOR 40 WK BEGINNING 1 WK POST CARCINOGEN TREATMENT (STUDY DURATION: 43 WK), Route [Carcinogen]: GAVAGE, Route [Promoter]: ORAL, Species: RAT, Strain/Sex: F344/MALE
  outcome: colon: adenocarcinoma; urinary bladder: transitional cell carcinoma
